{
  "source": "patent US8623839B2",
  "about": "“Compositions and methods for stabilized polysaccharide formulations” (DePuy Mitek, LLC, priority 2011, dated 2014)",
  "key": {"[1]": {"tested_on": "rat medial meniscal tear (MMT) model of osteoarthritis", "assay": "Rat MMT model of osteoarthritis, histology", "assay_type": "in vivo", "excerpt": "In the rat medial mensical tear (MMT) model of osteoarthritis, transection of the medial meniscus results in joint deterioration and reduced weight bearing that mimics human osteoarthritis. A unilateral medial meniscal tear in 300-400 gram rats results in rapidly progressive cartilage degenerative changes characterized by chondrocyte and proteoglycan loss, fibrillation, osteophyte formation and chondrocyte cloning. Such changes are typically observed to be substantial by day 21 following the meniscal surgery. The extent of joint deterioration, as determined primarily by the extent of cartilage lesions formed, can be measured using a semi-quantitative histological scoring system.\nTo test the utility of trehalose as a vehicle for intra-articularly injected compounds, a solution of trehalose was formulated as a 5% solution in 3 mM glycine-HCl buffer, having a pH of approximately 3. The solution was tested in the rat MMT model. Transection of the medial collateral ligament just below attachment to the meniscus was performed on 15 male Lewis rats. The meniscus was cut at its narrowest point (away from the ossicles) taking care not to damage the tibial surface.\nBeginning three days after MMT surgery, intra-articular injections of the trehalose solution were given weekly for five weeks, followed by euthanasia at week six.\nSuch measurements are taken using an ocular micrometer from stained histological cross sections of the medial compartment of the joint.\nThese measurements are taken using an ocular micrometer from stained histological cross sections of the medial compartment of the joint.\nCartilage preservation also correlated to the extent of collagen degeneration. […] The extent of collagen degeneration is defined as follows: […]\nSevere damage (total or near total loss of collagen to tidemark, >90% thickness)\nMarked damage (extends through 61-90% of the cartilage thickness)\nModerate damage (extends thru 31-60% of the cartilage thickness)\nMild damage (extends through 11-30% of the cartilage thickness)\nMinimal damage (very superficial, affecting upper 10% only)\nCartilage degeneration scores were determined histologically by estimating the area of non-viable (significant chondrocyte and proteoglycan loss but collagen retention) and completely absent cartilage matrix, then estimating the percentage of that area compared to the area of the extrapolated original cartilage cross sectional area. A score of 1-5 is assigned, with a score of 1 indicating cartilage degeneration of 10% or less, and a score of 5 indicating complete cartilage degeneration. In FIG. 8, Zone 1 refers to the one third of the medial tibial plateau closest to the transected meniscus. […]"}, "[2]": {"tested_on": "rabbit anterior cruciate ligament transection (ACLT) model of OA", "assay": "Rabbit ACLT model of osteoarthritis, modified Mankin scale", "assay_type": "in vivo", "details": "5% solution in 3 mM glycine-HCl buffer pH approx. 3, intra-articular weekly for seven weeks, euthanasia at 8 weeks; vs untreated animals (FIG. 9)", "description": "The trehalose formulation (a 5% trehalose solution in 3 mM glycine-HCl buffer having a pH of approximately 3) described above was also tested in the rabbit anterior cruciate ligament transection (ACLT) model of OA. The ACLT surgery destabilized the rabbit knee to a greater extent than meniscal transection, resulting in not only substantial cartilage deterioration but also osteophyte formation. Studies investigating the development and regulation of osteophyte formation in the rabbit model of OA have detected plate-like formations as early as 4 weeks post-ACLT, and osteophyte growth in all compartments of the knee by 12 weeks post-ACLT.\nRabbits were anesthetized. The patellar fat pad was retracted, and the ACL was isolated. The anterior cruciate ligament was severed with a surgical blade. The fibrous capsule and subcutaneous tissue were closed prior to the skin being sutured. Beginning one week after surgery, intra-articular injections were given weekly for seven weeks, followed by euthanasia at 8 weeks. Cartilage degradation was determined histologically using a modified Mankin scale. Higher scores indicated more extensive cartilage degradation, with a maximum score of 18.\n[…] decreased cartilage degeneration as a result of the intra-articular trehalose injections."}},
  "data": [
    {"smiles": "OC[C@H]1O[C@H](O[C@H]2O[C@H](CO)[C@@H](O)[C@H](O)[C@H]2O)[C@H](O)[C@@H](O)[C@@H]1O", "note": "[trehalose, α-D-glucopyranosyl α-D-glucopyranoside]", "values": [
      {"measurement": "width of significant cartilage lesions (chondrocyte and proteoglycan loss through 50% or more of cartilage thickness)", "setting": "[1]; 5% solution in 3 mM glycine-HCl buffer pH approx. 3, intra-articular weekly for five weeks, euthanasia at week six, vs no treatment (FIG. 5)", "value": "significant reduction"},
      {"measurement": "lesion Depth Ratio", "setting": "[1]; 5% solution, intra-articular weekly for five weeks, vs no treatment (FIG. 6)", "value": "significant improvement"},
      {"measurement": "width of cartilage lesions with marked or severe collagen depletion", "setting": "[1]; 5% solution, intra-articular weekly for five weeks, vs no treatment (FIG. 7)", "value": "significantly reduced"},
      {"measurement": "cartilage degeneration score of medial tibial plateau", "setting": "[1]; all three zones, 5% solution, intra-articular weekly for five weeks (FIG. 8)", "value": "statistically improved"},
      {"measurement": "modified Mankin score", "setting": "[2]", "value": "significant improvement"}
    ]}
  ]
}
